Results published in ChEMBL document CHEMBL4420076, “Amylin and calcitonin receptor agonist” (2017).
Numbered stars: 1 amine (or outer) side, 2 acyl side, 3 side chain; on linkers, the order of the positions; unused ones are H or OH. Peptide text beside a SMILES is read from it. * marks the point of attachment. C20 diacid = O=C(O)CCCCCCCCCCCCCCCCCCC(=O)*; C18 diacid = O=C(O)CCCCCCCCCCCCCCCCC(=O)*; γGlu = O=C(O)[C@H](CCC(=O)[*:2])N[*:1]

Columns and labels:
[1] = Stability in pH 7.5 buffer assessed as compound recovery at 1 uM by Thioflavin T based fluorescence assay; format: physicochemical; details: read-out: Drug recovery
[2] = Solubility in 100 mM glycylglycine buffer at pH 4.0 incubated for 18 hrs by UPLC analysis; format: physicochemical
[3] = Solubility in 100 mM glycylglycine buffer at pH 5.0 incubated for 18 hrs by UPLC analysis; format: physicochemical
[4] = Solubility in 100 mM bistrispropane buffer at pH 6.5 incubated for 18 hrs by UPLC analysis; format: physicochemical
[5] = Solubility in 100 mM bistrispropane buffer at pH 8.0 incubated for 18 hrs by UPLC analysis; format: physicochemical
[6] = Solubility in 100 mM glycylglycine buffer at pH 3.0 incubated for 18 hrs by UPLC analysis; format: physicochemical
[7] = Solubility in 100 mM bistrispropane buffer at pH 7.0 incubated for 18 hrs by UPLC analysis; format: physicochemical
[8] = Solubility in 100 mM bistrispropane buffer at pH 6.0 incubated for 18 hrs by UPLC analysis; format: physicochemical
[9] = Stability in pH 7.5 buffer assessed as lag time for fibril formation at 1 uM by Thioflavin T based fluorescence assay; format: physicochemical; details: pH 7.5, 1 µM
[10] = Solubility in 100 mM bistrispropane buffer at pH 7.5 incubated for 18 hrs by UPLC analysis; format: physicochemical
[11] = molecular target: T1, Calcitonin receptor (Homo sapiens, UniProt P30988); experiment: Agonist activity at human calcitonin receptor expressed in BHK570 cells assessed as increase in intracellular cAMP concentration incubated for 3 hrs in absence of albumin by CRE luciferase reporter gene assay; format: functional, cell-based
T1 sequence (P30988 whole entry): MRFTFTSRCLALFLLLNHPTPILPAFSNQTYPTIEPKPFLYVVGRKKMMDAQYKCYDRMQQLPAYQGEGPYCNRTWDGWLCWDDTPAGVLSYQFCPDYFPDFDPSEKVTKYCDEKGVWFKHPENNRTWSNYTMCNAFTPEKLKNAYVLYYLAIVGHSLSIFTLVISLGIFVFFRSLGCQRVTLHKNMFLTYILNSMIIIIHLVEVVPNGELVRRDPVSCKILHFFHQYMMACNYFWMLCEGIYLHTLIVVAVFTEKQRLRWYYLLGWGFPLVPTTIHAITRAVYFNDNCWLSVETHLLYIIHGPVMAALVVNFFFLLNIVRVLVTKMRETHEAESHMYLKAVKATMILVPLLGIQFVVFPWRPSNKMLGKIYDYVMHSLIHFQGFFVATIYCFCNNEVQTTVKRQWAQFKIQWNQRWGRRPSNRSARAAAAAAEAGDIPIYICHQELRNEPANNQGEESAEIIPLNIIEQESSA

[12] = molecular target: T2, Amylin receptor AMY3; CALCR/RAMP3 (Homo sapiens, UniProt O60896+P30988); experiment: Agonist activity at human amylin receptor expressed in BHK570 cells co-expressing RAMP3 assessed as increase in intracellular cAMP concentration incubated for 3 hrs in absence of albumin by CRE luciferase reporter gene assay; format: functional, cell-based
T2 sequence (P30988 whole entry): T1 sequence (P30988 whole entry)
T2 sequence (O60896 whole entry): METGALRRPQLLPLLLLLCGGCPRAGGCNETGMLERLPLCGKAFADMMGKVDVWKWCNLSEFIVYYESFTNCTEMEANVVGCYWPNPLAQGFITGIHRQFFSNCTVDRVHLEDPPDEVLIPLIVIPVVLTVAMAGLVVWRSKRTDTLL

[13] = molecular target: T1, Calcitonin receptor; experiment: Agonist activity at human calcitonin receptor expressed in BHK570 cells assessed as increase in intracellular cAMP concentration incubated for 3 hrs in presence of 10% FBS by CRE luciferase reporter gene assay; format: functional, cell-based
[14] = molecular target: T2, Amylin receptor AMY3; CALCR/RAMP3; experiment: Displacement of [125I]-labeled rat amylin from human amylin receptor expressed in BHK tkts13 whole cells co-expressing RAMP3 incubated for 60 mins by scintillation proximity assay; format: cell-based
[15] = molecular target: T2, Amylin receptor AMY3; CALCR/RAMP3; experiment: Agonist activity at human amylin receptor expressed in BHK570 cells co-expressing RAMP3 assessed as increase in intracellular cAMP concentration incubated for 3 hrs in presence of 10% FBS by CRE luciferase reporter gene assay; format: functional, cell-based
[16] = system: Rattus norvegicus; experiment: Reduction in food intake in Sprague-Dawley rat at 3 nmol/kg measured 0 to 24 hrs post dose relative to control; format: functional; set-up: scale not given: the % may be the effect or the level left
[17] = system: Rattus norvegicus; experiment: Reduction in food intake in Sprague-Dawley rat at 3 nmol/kg measured 24 to 48 hrs post dose relative to control; format: functional; set-up: scale not given: the % may be the effect or the level left

Row | SMILES | remaining at 1 µM [1] | solubility at 18 h [2] | solubility at 18 h [3] | solubility at 18 h [4] | solubility at 18 h [5] | solubility at 18 h [6] | solubility at 18 h [7] | solubility at 18 h [8] | Time [9] | solubility at 18 h [10] | EC50 [11] | EC50 [12] | EC50 [13] | IC50 [14] | EC50 [15] | Activity [16] | Activity [17]
1 | CC(C)C[C@H](NC(=O)[C@H](C)NC(=O)[C@H](C)NC(=O)[C@@H](NC(=O)[C@H](CO)NC(=O)[C@H](CC(C)C)NC(=O)[C@H](CCC(=O)O)NC(=O)[C@H](CO)NC(=O)[C@H](C)N)[C@@H](C)O)C(=O)NCC(=O)N[C@@H](CCCNC(=N)N)C(=O)N[C@@H](CC(C)C)C(=O)N[C@@H](CO)C(=O)N[C@@H](C)C(=O)N[C@@H](CCC(=O)O)C(=O)N[C@@H](CC(C)C)C(=O)N[C@@H](Cc1cnc[nH]1)C(=O)N[C@@H](CCC(=O)O)C(=O)N[C@@H](CC(C)C)C(=O)N[C@@H](C)C(=O)N[C@H](C(=O)N[C@@H](CC(C)C)C(=O)N1CCC[C@H]1C(=O)N[C@@H](CCCNC(=N)N)C(=O)N[C@H](C(=O)N[C@@H](CCCCNC(=O)CC[C@H](NC(=O)CCCCCCCCCCCCCCCCCCC(=O)O)C(=O)O)C(=O)N[C@H](C(=O)NCC(=O)N[C@@H](CO)C(=O)NCC(=O)N[C@@H](CO)C(=O)N1CCC[C@H]1C(N)=O)[C@@H](C)O)[C@@H](C)O)[C@@H](C)O | 94% | ≥ 200 µM | ≥ 200 µM | ≥ 200 µM | ≥ 200 µM | ≥ 200 µM | ≥ 200 µM | ≥ 200 µM | > 45 h | ≥ 200 µM |  |  |  |  |  |  | 
2 | CC(C)C[C@H](NC(=O)[C@H](C)NC(=O)[C@H](C)NC(=O)[C@@H](NC(=O)[C@H](CO)NC(=O)[C@H](CC(C)C)NC(=O)[C@H](CCC(=O)O)NC(=O)[C@H](CO)NC(=O)[C@H](C)NC(=O)CC[C@H](NC(=O)CCCCCCCCCCCCCCCCC(=O)O)C(=O)O)[C@@H](C)O)C(=O)NCC(=O)N[C@@H](CCCNC(=N)N)C(=O)N[C@@H](CC(C)C)C(=O)N[C@@H](CO)C(=O)N[C@@H](C)C(=O)N[C@@H](CCC(=O)O)C(=O)N[C@@H](CC(C)C)C(=O)N[C@@H](Cc1c[nH]cn1)C(=O)N[C@@H](CCC(=O)O)C(=O)N[C@@H](CC(C)C)C(=O)N[C@@H](C)C(=O)N[C@H](C(=O)N[C@@H](Cc1ccc(O)cc1)C(=O)N1CCC[C@H]1C(=O)N[C@@H](CCCNC(=N)N)C(=O)N[C@H](C(=O)N[C@@H](CCC(=O)O)C(=O)N[C@H](C(=O)NCC(=O)N[C@@H](CO)C(=O)NCC(=O)N[C@@H](CO)C(=O)N1CCC[C@H]1C(N)=O)[C@@H](C)O)[C@@H](C)O)[C@@H](C)O ({C18 diacid-γGlu}-ASELSTAALGRLSAELHELATYPRTETGSGSP-NH2) | 100% |  |  |  |  |  |  |  | > 45 h |  |  |  |  |  |  |  | 
3 | CC(C)C[C@H](NC(=O)[C@H](C)NC(=O)[C@H](C)NC(=O)[C@@H](NC(=O)[C@H](CO)NC(=O)[C@H](CC(C)C)NC(=O)[C@H](CCC(=O)O)NC(=O)[C@H](CO)NC(=O)[C@H](C)NC(=O)CC[C@H](NC(=O)CCCCCCCCCCCCCCCCCCC(=O)O)C(=O)O)[C@@H](C)O)C(=O)NCC(=O)N[C@@H](CCCNC(=N)N)C(=O)N[C@@H](CC(C)C)C(=O)N[C@@H](CO)C(=O)N[C@@H](C)C(=O)N[C@@H](CCC(=O)O)C(=O)N[C@@H](CC(C)C)C(=O)N[C@@H](Cc1cnc[nH]1)C(=O)N[C@@H](CCC(=O)O)C(=O)N[C@@H](CC(C)C)C(=O)N[C@@H](C)C(=O)N[C@H](C(=O)N[C@@H](CC(C)C)C(=O)N1CCC[C@H]1C(=O)N[C@@H](CCCNC(=N)N)C(=O)N[C@H](C(=O)N[C@@H](CCC(=O)O)C(=O)N[C@H](C(=O)NCC(=O)N[C@@H](CO)C(=O)NCC(=O)N[C@@H](CO)C(=O)N[C@@H](C)C(N)=O)[C@@H](C)O)[C@@H](C)O)[C@@H](C)O ({C20 diacid-γGlu}-ASELSTAALGRLSAELHELATLPRTETGSGSA-NH2) | 100% | ≥ 200 µM | ≥ 200 µM | ≥ 200 µM | ≥ 200 µM | ≥ 200 µM | ≥ 200 µM | ≥ 200 µM | > 45 h | ≥ 200 µM | 0.04 nM | 0.067 nM | 0.102 nM | 1.89 nM |  |  | 
4 | CC(C)C[C@H](NC(=O)[C@H](CO)NC(=O)CNC(=O)[C@H](CO)NC(=O)CNC(=O)[C@@H](NC(=O)[C@H](CCC(=O)O)NC(=O)[C@@H](NC(=O)[C@H](CCCNC(=N)N)NC(=O)[C@@H]1CCCN1C(=O)[C@H](CC(C)C)NC(=O)[C@@H](NC(=O)[C@H](C)NC(=O)[C@H](CC(C)C)NC(=O)[C@H](CCC(=O)O)NC(=O)[C@H](Cc1cnc[nH]1)NC(=O)[C@H](CC(C)C)NC(=O)[C@H](CCC(=O)O)NC(=O)[C@H](C)NC(=O)[C@H](CO)NC(=O)[C@H](CC(C)C)NC(=O)[C@H](CCCNC(=N)N)NC(=O)CNC(=O)[C@H](CC(C)C)NC(=O)[C@H](C)NC(=O)[C@H](C)NC(=O)[C@@H](NC(=O)[C@H](CO)NC(=O)[C@H](CC(C)C)NC(=O)[C@H](CCC(=O)O)NC(=O)[C@H](CO)NC(=O)[C@H](C)NC(=O)CC[C@H](NC(=O)CCCCCCCCCCCCCCCCCCC(=O)O)C(=O)O)[C@@H](C)O)[C@@H](C)O)[C@@H](C)O)[C@@H](C)O)C(N)=O ({C20 diacid-γGlu}-ASELSTAALGRLSAELHELATLPRTETGSGSL-NH2) | 100% | ≥ 200 µM | ≥ 200 µM | ≥ 200 µM | ≥ 200 µM | ≥ 200 µM | ≥ 200 µM | ≥ 200 µM | > 45 h | ≥ 200 µM | 0.031 nM |  |  | 3.05 nM |  |  | 
5 | CC(C)C[C@H](NC(=O)[C@H](C)NC(=O)[C@H](C)NC(=O)[C@@H](NC(=O)[C@H](CO)NC(=O)[C@H](CC(C)C)NC(=O)[C@H](CCC(=O)O)NC(=O)[C@H](CO)NC(=O)[C@H](C)NC(=O)[C@H](CCC(=O)O)NC(=O)CCCCCCCCCCCCCCCCCCC(=O)O)[C@@H](C)O)C(=O)NCC(=O)N[C@@H](CCCNC(=N)N)C(=O)N[C@@H](CC(C)C)C(=O)N[C@@H](CO)C(=O)N[C@@H](C)C(=O)N[C@@H](CCC(=O)O)C(=O)N[C@@H](CC(C)C)C(=O)N[C@@H](Cc1cnc[nH]1)C(=O)N[C@@H](CCC(=O)O)C(=O)N[C@@H](CC(C)C)C(=O)N[C@@H](C)C(=O)N[C@H](C(=O)N[C@@H](CC(C)C)C(=O)N1CCC[C@H]1C(=O)N[C@@H](CCCNC(=N)N)C(=O)N[C@H](C(=O)N[C@@H](CCC(=O)O)C(=O)N[C@H](C(=O)NCC(=O)N[C@@H](CO)C(=O)NCC(=O)N[C@@H](CO)C(=O)N1CCC[C@H]1C(N)=O)[C@@H](C)O)[C@@H](C)O)[C@@H](C)O ({C20 diacid}-EASELSTAALGRLSAELHELATLPRTETGSGSP-NH2) |  | ≥ 200 µM | ≥ 200 µM | ≥ 200 µM | ≥ 200 µM | ≥ 200 µM | ≥ 200 µM | ≥ 200 µM |  | ≥ 200 µM | 0.009 nM | 0.011 nM | 0.026 nM | 0.24 nM | 0.061 nM | 55.5% | 63.5%
